Assays:
[1] = test system: binding between EPRS and Snail1; experiment: Endogenous immunoprecipitation of EPRS with Snail1 immunoblot in TGF-β1-treated cells; type: cell-based; conditions: A549 cells, TGF-β1 0, 1, 10, 20 ng/ml for 48 hours, cytoplasm and nucleus fractions
Protocol: For the detection of endogenous EPRS interaction with Snail1 in nucleus and cytosol, the protein extracts were incubated with protein A agarose (Life technologies) for 30 minutes on ice, and then centrifuged to remove nonspecific IgG binding proteins. The pre-cleared supernatants were mixed with anti-EPRS antibody, incubated the mixture for 2 h at 4° C. with gentle agitation, added protein A agarose for 2 h, and centrifuged. After washing the precipitates with the cold lysis buffer 3-5 times, the precipitates were dissolved in the 2×SDS sample buffer and separated by SDS-PAGE.
The interaction between EPRS and Snail1 were verified at the endogenous level of cytoplasm and nucleus. A549 cells were treated with TGF-β1 of different concentrations (0, 1, 10, 20 ng/ml) for 48 hours, fractionated into the cytoplasm and the nucleus, and then subjected endo-IP using protein A-agarose beads (Invitrogen) and EPRS antibody.

[2] = test system: EPRS (A549 cells); experiment: Immunoblotting of Snail1 and EMT-related markers after EPRS knock-down using siRNA; type: cell-based, human; conditions: si-EPRS vs si-control, with or without 10 ng/ml TGF-β1 for 1 hour or 48 hours, cytoplasm and nucleus
Protocol: Human EPRS gene specific siRNA (si-EPRS) including a sense strand of SEQ ID NO: 23 and an antisense strand of SEQ ID NO: 24, and non-silencing control siRNA (si-control, Catalog Number: 4390843) were purchased from Invitrogen Silencer Select siRNAs products.
Cells were lysed with lysis buffer (20 mM Tris-HCl (pH 8.0) buffer containing 150 mM NaCl, 1% Triton X-100, 1 mM EDTA, 10% glycerol, and protease inhibitor) and collected in a 1.5 ml tube and incubated in 4° C. with gentle agitation for 15 minutes. Then, centrifuged at 15,000 rpm for 20 minutes in 4° C. and supernatants were collected and quantified by using Bradford reagent. After 5×SDS sample buffer was added, each sample were boiled in 100° C. for 5 minutes. Protein samples were separated by SDS-PAGE, transferred to nitrocellulose membrane, and immunoblotted with specific antibodies. The blots were then reacted with horseradish peroxidase-coupled anti-mouse and anti-rabbit (Pierce) IgG secondary antibody. Signals were developed with ECL-PLUS detection reagent (GE healthcare lifesciences).
The antibodies specific to the respective marker proteins, used in the present experiment, are as follows: StrepMAB classic-HRP (IBA), Monoclonal anti-FLAG M2-HRP (Sigma), anti-Snail1 (Cell signaling), anti-Slug (Cell signaling), anti-L13a (Cell signaling), anti-p-Smad2 (Cell signaling), anti-p-Smad3 (Cell signaling), anti-E-cadherin (Cell signaling), anti-N-cadherin (Cell signaling), anti-HDAC1 (Bio vision), anti-β-actin (SCBT), anti-Tubulin (Sigma), anti-HSP90 alpha/β (SCBT), anti-p84 (SCBT), and anti-HA (SCBT). The anti-EPRS antibody was prepared through a conventional procedure by which the EPRS protein represented by SEQ ID NO: 1 was injected into a New Zealand white rabbit to cause an immune response, thereby obtaining an antibody.
It was verified how the reduced EPRS affects Snail1 and EMT progress, through EPRS knock-down experiment using siRNA. For each experimental group, […] cells were treated with si-control or si-EPRS, and treated with or without 10 ng/ml of TGF-β1 for 1 hour or 48 hours. […]

[3] = test system: A549 cells; experiment: Cell migration assay (Transwell) after EPRS knock-down; type: cell-based; conditions: si-EPRS vs si-control, groups treated with and without TGF-β1 (10 ng/ml, 12 hours)
Protocol: Cell migration assays with A549 cells were performed in Transwell chambers ([…] pore, Costar). Fibronectin (10 μg/ml, BD Biosciences) was coated on the membrane and 700 μl serum-free RPMI was placed in the bottom chamber. After A549 cells were trypsinized and centrifuged at 1,000 rpm for 5 minutes, serum-free RPMI was added to the cells for suspension. Then, 1×10^5 cells were dropped into 24-well Transwell chambers and incubated for 12 h at 37° C. in a CO2 incubator. After washing the membrane twice with PBS, 70% methyl alcohol in PBS was used for cell fixation. PBS washing was performed three times afterwards and hematoxylin (Sigma) was used for cell staining After washing the membrane with distilled water several times, non-migrant cells from the top were removed by using cotton swab. Then, the membranes were mounted with Gel Mount (Biomeda). For counting migrant cells, three randomly picked places were magnified with microscopes in high-power fields (×10, and ×20). All samples were performed in triplicate.
Here, the TGF-β1 treatment groups were treated at a concentration of 10 ng/ml for 12 hours.

[4] = test system: A549 cells; experiment: Cell invasion assay (Matrigel invasion chamber) after EPRS knock-down; type: cell-based; conditions: si-EPRS vs si-control, groups treated with and without TGF-β1 (10 ng/ml, 12 hours)
Protocol: Cell invasion assay using A549 cells were conducted in the Matrigel invasion chamber manufactured by BD Co. According to the manufacturer's protocol, the matrigel was rehydrated for two hours and 750 μl of the serum-free RPMI was located in a lower chamber. The A549 cells were trypsinized, and then centrifuged at 1,000 rpm for 5 minutes. The serum-free RPMI was added to the cells to prepare a suspension. Then, 1×10^5 cells were put in the upper chamber, and then incubated in a CO2 incubator at 37° C. for 12 hours. The membrane was washed two times with PBS, and the cells were fixed using PBS containing 70% methyl alcohol. Then, the membrane was washed three times with PBS, and then the cells were stained with hematoxylin (Sigma). The membrane was washed several times with distilled water, and then immobilized cells above were removed using cotton swabs. Then, the membrane was mounted on the Gel Mount (Biomeda). For counting moving cells, three randomly selected regions were magnified through the microscope. All samples were repeatedly tested three times.
Here, the groups treated with TGF-β1 were prepared by treatment at a concentration of 10 ng/ml for 12 hours.

Row | Substance | binding between EPRS and Snail1 (endo-IP, Snail1 immunoblot) [1] | E-cadherin protein level (immunoblot) [2] | Snail1 protein level (immunoblot) [2] | p-SMAD3 protein level (immunoblot) [2] | cell migration [3] | cell invasion [4]
1 | TGF-β1: Growth factor purchased from R&D systems, used to induce EMT | the higher the concentration of TGF-β1, the stronger the binding between EPRS and Snail1 | – | – | – | – | –
2 | si-EPRS: Human EPRS gene specific siRNA including a sense strand of SEQ ID NO: 23 and an antisense strand of SEQ ID NO: 24 (sense CGAUGUCAGCAUUUCCGUUTT; antisense AACGGAAAUGCUGACAUCGTC; chemistry not given here) | – | increased | reduced | reduced | reduced | reduced

From patent US20160195533A1, “METHOD FOR SCREENING EMT INHIBITOR” (Medicinal Bioconvergence Research Center, priority 2015, published 2016)
